Test results from ChEMBL document CHEMBL5137096, “Antiviral Profiling of C-18- or C-19-Functionalized Semisynthetic Abietane Diterpenoids” (J Nat Prod, 2022).
Active and inactive are the calls of the source. The rule behind the calls is not given here.

Legend:
Vero C1008 = assay: Cytotoxicity against African green monkey Vero E6 cells measured after 72 hrs by MTT assay; type: toxicity, cell-based; details: chlorocebus sabaeus, vero c1008, 72 h
BHK-21 = assay: Cytotoxicity against golden hamster BHK-21 cells measured after 6 days by MTT assay; type: toxicity, cell-based, Mesocricetus auratus; details: bhk-21, 144 h, time 6 day
Zika virus [1] = type: functional, Vero E6; details: time 72 hrs
Zika virus [2] = type: functional, Vero E6; details: time 72 hrs; remark: listed apart in the source
dengue virus type 2 [3] = type: functional, Vero E6; details: time 72 hrs
Human alphaherpesvirus 1 = type: functional, 29R, Vero E6; details: time 72 hrs
Chikungunya virus = type: functional, Vero E6; details: time 72 hrs
dengue virus type 2 [4] = assay: Antiviral activity against DENV2 infected in hamster BHK-21 cells assessed as inhibition of plaque formation by measuring reduction in PFU per well incubated for 6 days by crystal violet staining based assay; type: functional; details: time 6 day
Zika virus [5] = assay: Antiviral activity against ZIKV Col infected in African Green monkey Vero cells assessed as reduction in viral protein production at 3.1 to 25 ug/ml by ELISA relative control; type: functional; parameters: scale not given: the % may be the effect or the level left; details: dose 3.1-25 µg/ml; at 3.1 to 25 µg/mL
Zika virus [6] = assay: Antiviral activity against ZIKV IMT17; type: functional, organism-based
Zika virus [7] = assay: Antiviral activity against ZIKV Col infected in African Green monkey Vero cells assessed as inhibition of viral replication by measuring reduction in viral genomic copies at 12.5 to 25 ug/ml by qRT-PCR analysis; type: functional, organism-based; details: dose 12.5-25 µg/ml

Row | SMILES | CC100 (Vero C1008) | CC100 (BHK-21) | EC (Zika virus [1]) | EC (Zika virus [2]) | EC (dengue virus type 2 [3]) | EC (Human alphaherpesvirus 1) | EC (Chikungunya virus) | EC (dengue virus type 2 [4]) | Activity (Zika virus [5]) | EC50 (Zika virus [6]) | inhibition (Zika virus [7])
1 | CC(C)c1cc2c(cc1O)[C@@]1(C)CCC[C@](C)(C(=O)O)[C@@H]1CC2 [LAMBERTIC ACID] | > 50 µg/mL | > 50 µg/mL | 25 µg/mL | 25 µg/mL | 25 µg/mL | 25 µg/mL | 25 µg/mL |  |  |  | 
2 | CC(C)c1ccc2c(c1O)CC[C@H]1[C@](C)(C(=O)O)CCC[C@]21C | > 25 µg/mL | > 25 µg/mL | 25 µg/mL | 12.5 µg/mL |  |  | 25 µg/mL |  |  |  | 
3 | CC(C)c1cc2c(cc1O)[C@@]1(C)CCC[C@](C)(C(=O)O)[C@@H]1CC2=O | 25 µg/mL | 12.5 µg/mL |  |  |  |  |  |  |  |  | 
4 | CC(C)c1cc2c(cc1O)[C@@]1(C)CCC[C@@](C)(C(=O)O)[C@@H]1CC2=O | > 50 µg/mL | 50 µg/mL |  |  |  | 25 µg/mL | 25 µg/mL |  |  |  | 
5 | COC(=O)[C@]1(C)CCC[C@]2(C)c3ccc(C(C)C)cc3CC[C@@H]12 | > 50 µg/mL | 50 µg/mL | 6.2 µg/mL | 12.5 µg/mL |  | 25 µg/mL |  |  |  |  | 
6 | COC(=O)[C@@]1(C)CCC[C@]2(C)c3cc(O)c(C(C)C)cc3C(=O)C[C@@H]12 | 25 µg/mL | 12.5 µg/mL |  |  | 12 µg/mL |  | 12.5 µg/mL |  |  |  | 
7 | COC(=O)[C@]1(C)CCC[C@]2(C)c3cc(C(C)=O)c(C(C)C)cc3CC[C@@H]12 | > 50 µg/mL | 25 µg/mL |  |  |  | 12.5 µg/mL | 25 µg/mL |  |  |  | 
8 | CC(C)c1ccc2c(c1O)CC[C@H]1[C@](C)(CO)CCC[C@]21C | > 25 µg/mL | > 25 µg/mL | 12.5 µg/mL |  |  |  | 12.5 µg/mL |  |  |  | 
9 | CC(C)c1cc2c(cc1O)[C@@]1(C)CCCC(C)(C)[C@@H]1CC2 [FERRUGINOL] | > 50 µg/mL | > 50 µg/mL | 12.5 µg/mL |  | 25 µg/mL |  | 25 µg/mL | 12.5 µg/mL |  |  | 
10 | CC(C)c1cc2c(cc1O)[C@@]1(C)CCC[C@@](C)(CN3C(=O)c4ccccc4C3=O)[C@@H]1CC2 | > 50 µg/mL | > 50 µg/mL | 6.2 µg/mL | 3.1 µg/mL | 25 µg/mL | 12.5 µg/mL | 6.2 µg/mL | 12.5 µg/mL | <50% | 7.7 µM | Active
11 | CC(C)c1cc2c(cc1O)[C@@]1(C)CCC[C@@](C)(CO)[C@@H]1CC2 [18-HYDROXYFERRUGINOL] | 50 µg/mL | 50 µg/mL | 25 µg/mL | 12.5 µg/mL | 25 µg/mL | 12.5 µg/mL | 12.5 µg/mL | 3.1 µg/mL |  |  | 
12 | COC(=O)[C@]1(C)CCC[C@]2(C)c3ccc(C(C)C)c(O)c3CC[C@@H]12 | > 25 µg/mL | > 25 µg/mL | 12.5 µg/mL |  | 25 µg/mL | 12.5 µg/mL | 12.5 µg/mL | 3.1 µg/mL |  |  | 
13 | CC(C)c1ccc2c(c1)CC[C@H]1C(C)(C(=O)O)CCC[C@]21C (stereo not given in full) | 50 µg/mL | 50 µg/mL | 12.5 µg/mL |  | 25 µg/mL | 25 µg/mL | 12.5 µg/mL |  |  |  | 
14 | CC(C)c1cc2c(cc1O)[C@@]1(C)CCC[C@@](C)(CO)[C@@H]1CC2=O | 25 µg/mL | 12.5 µg/mL | 12.5 µg/mL |  | 12.5 µg/mL | 12.5 µg/mL | 25 µg/mL |  |  |  | 
15 | COC(=O)[C@@]1(C)CCC[C@]2(C)c3cc(OC(C)=O)c(C(C)C)cc3CC[C@@H]12 | 25 µg/mL | 25 µg/mL | 12.5 µg/mL |  | 12.5 µg/mL |  | 25 µg/mL |  |  |  | 
16 | COC(=O)[C@]1(C)CCC[C@]2(C)c3cc(O)c(C(C)C)cc3C(=O)C[C@@H]12 | 50 µg/mL | 25 µg/mL |  |  |  | 25 µg/mL | 25 µg/mL |  |  |  | 
17 | NC(=O)c1ncn([C@@H]2O[C@H](CO)[C@@H](O)[C@H]2O)n1 [RIBAVIRIN] | > 160 µg/mL | > 160 µg/mL |  |  |  |  |  |  |  |  | 
18 | COC(=O)[C@]1(C)CCC[C@]2(C)c3cc(OC(C)=O)c(C(C)C)cc3CC[C@@H]12 | 50 µg/mL | 50 µg/mL |  | 12.5 µg/mL |  | 12.5 µg/mL | 25 µg/mL |  |  |  | 
19 | CC(C)c1cc2c(cc1O)[C@@]1(C)CCC[C@@](C)(C(=O)O)[C@@H]1CC2 | 25 µg/mL | 12.5 µg/mL |  |  |  | 12.5 µg/mL | 25 µg/mL |  |  |  | 
20 | CC(C)c1cc2c(cc1O)[C@@]1(C)CCC[C@](C)(CO)[C@@H]1CC2 | 25 µg/mL | 12.5 µg/mL | 12.5 µg/mL |  |  | 12.5 µg/mL | 25 µg/mL |  |  |  | 
21 | CC(C)c1cc2c(cc1O)[C@@]1(C)CCC[C@](C)(CO)[C@@H]1CC2=O | > 25 µg/mL | 25 µg/mL |  |  |  | 25 µg/mL | 25 µg/mL |  |  |  | 
22 | COC(=O)[C@]1(C)CCC[C@]2(C)c3cc(OC(C)=O)c(C(C)C)cc3C(=O)C[C@@H]12 | 25 µg/mL | 25 µg/mL |  |  |  | 25 µg/mL |  |  |  |  | 
23 | COC(=O)[C@@]1(C)CCC[C@]2(C)c3cc(OC(C)=O)c(C(C)C)cc3C(=O)C[C@@H]12 | 50 µg/mL | 25 µg/mL | 25 µg/mL |  |  |  | 25 µg/mL |  |  |  | 
24 | COC(=O)[C@@]1(C)CCC[C@]2(C)c3cc(O)c(C(C)C)cc3CC[C@@H]12 | > 50 µg/mL | 50 µg/mL | 25 µg/mL | 12.5 µg/mL | 25 µg/mL |  | 12.5 µg/mL | 12.5 µg/mL |  |  | 
25 | Nc1nc2c(ncn2COCCO)c(=O)[nH]1 [ACYCLOVIR] |  |  |  |  |  | 1.5 µg/mL |  |  |  |  | 
26 | CC(C)c1ccc2c(c1)CC[C@H]1C(C)(CO)CCC[C@]21C (stereo not given in full) | > 50 µg/mL | > 50 µg/mL | 12.5 µg/mL |  | 25 µg/mL |  | 25 µg/mL | 12.5 µg/mL |  |  | 
27 | COC(=O)[C@]1(C)CCC[C@]2(C)c3cc(O)c(C(C)C)cc3CC[C@@H]12 | 50 µg/mL | 25 µg/mL |  |  |  | 12.5 µg/mL | 25 µg/mL |  |  |  | 
28 | COC(=O)[C@@]1(C)CCC[C@]2(C)c3cc(C(C)=O)c(C(C)C)cc3CC[C@@H]12 | > 50 µg/mL | 50 µg/mL | 25 µg/mL | 25 µg/mL | 25 µg/mL | 25 µg/mL | 25 µg/mL |  |  |  | 
